Results: paper PMC6013774 (Chemical Science, 2016)

Biological target: T1, AhbD (Methanosarcina barkeri, UniProt Q46CH7)
T1 sequence (Q46CH7 1-349): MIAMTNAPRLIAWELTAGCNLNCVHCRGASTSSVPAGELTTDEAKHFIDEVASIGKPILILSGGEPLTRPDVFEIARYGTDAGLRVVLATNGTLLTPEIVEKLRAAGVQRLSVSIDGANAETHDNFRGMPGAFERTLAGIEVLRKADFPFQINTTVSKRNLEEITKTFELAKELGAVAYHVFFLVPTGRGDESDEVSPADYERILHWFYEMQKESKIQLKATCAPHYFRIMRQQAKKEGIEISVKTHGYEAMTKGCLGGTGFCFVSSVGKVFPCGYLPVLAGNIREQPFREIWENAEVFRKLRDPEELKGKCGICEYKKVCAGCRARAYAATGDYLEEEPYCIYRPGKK
Assay: tryptophan fluorescence quenching
Format: binding

Compound `CC1=C(CCC(=O)O)c2cc3nc(cc4[nH]c(cc5[nH]c(cc1n2)c(C)c5CCC(=O)O)c(CCC(=O)O)c4C)C(CCC(=O)O)=C3C` [COPRO III] has a Kd of 33.9 ± 3.9 µM.
